Values quoted from earlier work as cited in paper PMC8657489, “Identification of VEGF Signaling Inhibition-Induced Glomerular Injury in Rats through Site-Specific Urinary Biomarkers” (International Journal of Molecular Sciences, 2021).

Assays:
patients [1] = tested on: patients; set-up: method as in PMID 24574832; conditions: patients receiving Sunitinib
[2] = tested on: glomerular endothelial cells and podocytes; set-up: method as in PMID 17726104; conditions: rats
patients [3] = conditions: human, in vivo

CCN(CC)CCNC(=O)c1c(C)[nH]c(/C=C2\C(=O)Nc3ccc(F)cc32)c1C [Sunitinib]
renal adverse effects (patients [1]): proteinuria and renal insufficiency were reported

COc1cc2c(Nc3ccc(Br)cc3F)ncnc2cc1OCC1CCN(C)CC1 [vandetanib]
glomerular morphological changes [2]: not only the loss of fenestration in glomerular endothelial cells, but also morphological changes in podocytes

Bevacizumab: monoclonal antibody against VEGF-A, also known as Avastin
patients who developed proteinuria (patients [3]): 21~64%
proteinuria considered severe cases (grade 3–4) (patients [3]): 2.1–11.9%
